Target: human orexin-2 receptor (Homo sapiens (Human), UniProt O43614)
Experiment: FLIPR Ca2+ Flux Assay, orexin-2 receptor antagonism in CHO cells
Format: cell-based
Conditions: CHO cells expressing the human orexin-2 receptor; agonist 70 pM Ala-6,12 orexin-A; read-out: hOX2 FLIPR IC50
Summary of the method: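 CHO cells expressing rat OX1R or human OX2R, Fluo-4AM loaded, given compounds for 5 min, then challenged with 70 pM Ala-6,12 human orexin-A in HBSS/HEPES/BSA/probenecid, pH 7.4. FLIPR calcium fluorescence recorded 5 min; peak height versus agonist-alone gives IC50.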

Chain of human orexin-2 receptor (O43614 whole entry): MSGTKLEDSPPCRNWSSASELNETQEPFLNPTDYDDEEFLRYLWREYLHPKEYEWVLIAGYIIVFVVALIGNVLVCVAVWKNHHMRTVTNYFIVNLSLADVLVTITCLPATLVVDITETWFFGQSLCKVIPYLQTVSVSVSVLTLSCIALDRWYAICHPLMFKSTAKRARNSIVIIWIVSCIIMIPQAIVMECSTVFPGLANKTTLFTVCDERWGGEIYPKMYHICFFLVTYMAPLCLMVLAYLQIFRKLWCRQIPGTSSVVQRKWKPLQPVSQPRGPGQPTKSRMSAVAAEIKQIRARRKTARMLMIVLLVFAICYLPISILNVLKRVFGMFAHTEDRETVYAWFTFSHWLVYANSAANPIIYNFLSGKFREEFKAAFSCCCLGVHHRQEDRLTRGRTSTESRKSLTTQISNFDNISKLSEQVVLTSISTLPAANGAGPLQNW

Row | SMILES | IC50 [nM]
1 | C[C@@H]1CC[C@@H](Oc2nccn3nccc23)CN1C(=O)c1cscc1-n1nccn1 [Example 71, (4-(2H-1,2,3-triazol-2-yl)thiophen-3-yl)((2R,5R)-2-methyl-5-(pyrazolo[1,5-α]pyrazin-4-yloxy)piperidin-1-yl)methanone] | 16
2 | C=Cc1cnc2c(O[C@@H]3CC[C@@H](C)N(C(=O)c4ccccc4-n4nccn4)C3)nccn12 [Example 36, (2-(2H-1,2,3-triazol-2-yl)phenyl)((2R,5R)-2-methyl-5-((3-vinylimidazo[1,2-a]pyrazin-8-yl)oxy)piperidin-1-yl)methanone] | 21
3 | C[C@@H]1CC[C@@H](Oc2nccn3c(C(F)F)cnc23)CN1C(=O)c1ccccc1-c1cnccn1 [Example 53, ((2R,5R)-5-((3-(difluoromethyl)imidazo[1,2-α]pyrazin-8-yl)oxy)-2-methylpiperidin-1-yl)(2-(pyrazin-2-yl)phenyl)methanone] | 21.3
4 | C[C@@H]1CC[C@@H](Oc2nccn3c(Cl)cnc23)CN1C(=O)c1ccccc1C1(C#N)CC1 [Example 28, 1-(2-((2R,5R)-5-((3-chloroimidazo[1,2-α]pyrazin-8-yl)oxy)-2-methylpiperidine-1-carbonyl)phenyl) cyclopropanecarbonitrile] | 9.5
5 | CC(C)Oc1ccccc1C(=O)N1C[C@H](Oc2nccn3nccc23)CC[C@H]1C [Example 84, (2-isopropoxyphenyl)((2R,5R)-2-methyl-5-(pyrazolo[1,5-α]pyrazin-4-yloxy)piperidin-1-yl)methanone] | 43.5
6 | C[C@@H]1CC[C@@H](Oc2nccn3c(C(F)(F)F)cnc23)CN1C(=O)c1cccnc1OCC(F)F [Example 64, (2-(2,2-difluoroethoxy)pyridin-3-yl)((2R,5R)-2-methyl-5-((3-(trifluoromethyl)imidazo [1,2-α]pyrazin-8-yl)oxy)piperidin-1-yl)methanone] | 17.4
7 | Cc1ncc2c(O[C@@H]3CC[C@@H](C)N(C(=O)c4ccccc4-n4nccn4)C3)nccn12 [Example 103, (2-(2H-1,2,3-triazol-2-yl)phenyl)((2R,5R)-2-methyl-5-((3-methylimidazo[1,5-a]pyrazin-8-yl)oxy)piperidin-1-yl)methanone] | 23.5
8 | C[C@@H]1CC[C@@H](Oc2nccn3c(C(O)C(F)F)cnc23)CN1C(=O)c1ccccc1-n1nccn1 (stereo partly drawn) [Example 67, (2-(2H-1,2,3-triazol-2-yl)phenyl)((2R,5R)-5-((3-(2,2-difluoro-1-hydroxyethyl)imidazo[1,2-a]pyrazin-8-yl)oxy)-2-methylpiperidin-1-yl)methanone] | 182
9 | Cc1cnc2c(O[C@@H]3CC[C@@H](C)N(C(=O)c4ccccc4-n4nccn4)C3)nccn12 [Example 34, (2-(2H-1,2,3-triazol-2-yl)phenyl)((2R,5R)-2-methyl-5-((3-methylimidazo[1,2-a]pyrazin-8-yl)oxy)piperidin-1-yl)methanone] | 16.3
10 | C[C@@H]1CC[C@@H](Oc2nccn3c(C(F)(F)F)cnc23)CN1C(=O)c1ccccc1-c1ncccn1 [Example 66, ((2R,5R)-2-methyl-5-((3-(trifluoromethyl)imidazo[1,2-a]pyrazin-8-yl)oxy)piperidin-1-yl)(2-(pyrimidin-2-yl)phenyl)methanone] | 14.9
11 | C[C@@H]1CC[C@@H](Oc2nccn3c(C#N)cnc23)CN1C(=O)c1ccccc1-n1nccn1 [Example 35, 8-(((3R,6R)-1-(2-(2H-1,2,3-triazol-2-yl)benzoyl)-6-methylpiperidin-3-yl)oxy)imidazo[1,2-a]pyrazine-3-carbonitrile] | 73.7
12 | C[C@@H]1CC[C@@H](Oc2nccn3c(C(F)F)cnc23)CN1C(=O)c1ccccc1C1(C#N)CC1 [Example 42, 1-(2-((2R,5R)-5-((3-(difluoromethyl)imidazo[1,2-α]pyrazin-8-yl)oxy)-2-methylpiperidine-1-carbonyl)phenyl)cyclopropanecarbonitrile] | 5
13 | C[C@@H]1CC[C@@H](Nc2nccc3nn(C)cc23)CN1C(=O)c1ccccc1-n1nccn1 [Example 97, (2-(2H-1,2,3-triazol-2-yl)phenyl)((2R,5R)-2-methyl-5-((2-methyl-2H-pyrazolo[4,3-c]pyridin-4-yl)amino)piperidin-1-yl) methanone] | 124
14 | Cc1cn2ccnc(O[C@@H]3CC[C@@H](C)N(C(=O)c4ccsc4-c4ncccn4)C3)c2n1 [Example 14, ((2R,5R)-2-methyl-5-((2-methylimidazo[1,2-α]pyrazin-8-yl)oxy)piperidin-1-yl) (2-(pyrimidin-2-yl)thiophen-3-yl)methanone] | 36.8
15 | COC(=O)c1ccccc1C(=O)N1C[C@H](Oc2ccnc3ocnc23)CC[C@H]1C [Example 93, methyl 2-((2R,5R)-2-methyl-5-(oxazolo[5,4-b]pyridin-7-yloxy)piperidine-1-carbonyl)benzoate] | 46.4
16 | C[C@@H]1CC[C@@H](Nc2nccn3c(Cl)cnc23)CN1C(=O)c1ccccc1-n1nccn1 [Example 30, (2-(2H-1,2,3-triazol-2-yl)phenyl)((2R,5R)-5-((3-chloroimidazo[1,2-a]pyrazin-8-yl)amino)-2-methylpiperidin-1-yl)methanone] | 13.9
17 | C[C@@H]1CC[C@@H](Sc2nccn3ccnc23)CN1C(=O)c1ccccc1-n1nccn1 [Example 5, (2-(2H-1,2,3-triazol-2-yl)phenyl)((2R,5R)-5-(imidazo[1,2-a]pyrazin-8-ylthio)-2-methylpiperidin-1-yl)methanone] | 10.3
18 | C[C@@H]1CC[C@@H](Oc2nccn3c(F)cnc23)CN1C(=O)c1ccccc1-n1nccn1 [Example 32, (2-(2H-1,2,3-triazol-2-yl)phenyl)((2R,5R)-5-((3-fluoroimidazo[1,2-a]pyrazin-8-yl)oxy)-2-methylpiperidin-1-yl)methanone] | 12.6
19 | C[C@@H]1CC[C@@H](Nc2nccc3c2ncn3C)CN1C(=O)c1ccccc1-n1nccn1 [Example 101, (2-(2H-1,2,3-triazol-2-yl)phenyl)((2R,5R)-2-methyl-5-((1-methyl-1H-imidazo[4,5-c]pyridin-4-yl)amino)piperidin-1-yl)methanone] | 38.5
20 | Cc1cnn2ccnc(O[C@@H]3CC[C@@H](C)N(C(=O)c4ccccc4-n4nccn4)C3)c12 [Example 89, (2-(2H-1,2,3-triazol-2-yl)phenyl)((2R,5R)-2-methyl-5-((3-methylpyrazolo[1,5-a]pyrazin-4-yl)oxy)piperidin-1-yl)methanone] | 19.2
21 | C[C@@H]1CC[C@@H](Oc2nccn3c(C(F)F)cnc23)CN1C(=O)c1ncccc1-c1ccccc1 [Example 49, ((2R,5R)-5-((3-(difluoromethyl)imidazo[1,2-α]pyrazin-8-yl)oxy)-2-methylpiperidin-1-yl)(3-phenylpyridin-2-yl)methanone] | 51.8
22 | CC(C)Oc1ncccc1C(=O)N1C[C@H](Oc2nccn3nccc23)CC[C@H]1C [Example 83, (2-isopropoxypyridin-3-yl)((2R,5R)-2-methyl-5-(pyrazolo[1,5-α]pyrazin-4-yloxy)piperidin-1-yl)methanone] | 49.1
23 | Cc1nc2ccnc(O[C@@H]3CC[C@@H](C)N(C(=O)c4ccccc4-n4nccn4)C3)n2n1 [Example 104, (2-(2H-1,2,3-triazol-2-yl)phenyl)((2R,5R)-2-methyl-5-((2-methyl-[1,2,4]triazolo[1,5-c]pyrimidin-5-yl)oxy)piperidin-1-yl)methanone] | 60
